Data on 3 molecules can be found in patent publication US20090298890A1, “NEW N-METHYL BENZAMIDE DERIVATIVES” (BAYER CROPSCIENCE SA, priority 2006, published 2009).

The test system of one assay is Pyrenophora teres. The assay can be described thus: In vivo test on Pyrenophora teres (barley net blotch). The settings on record: barley plants (Express variety), preventive spray 24 hours before contamination, dose 330 ppm, grading 12 days after contamination vs control plants. The method, then: In Vivo Test on Pyrenophora Teres (Barley Net Blotch)
The active ingredients tested are prepared by homogenization in a mixture of acetone/tween/DMSO, then diluted with water to obtain the desired active material concentration.
Barley plants (Express variety), sown on a 50/50 peat soil-pozzolana substrate in starter cups and grown at 12° C., are treated at the 1-leaf stage (10 cm tall) by spraying with the active ingredient prepared as described above. Plants, used as controls, are treated with the mixture of acetone/tween/DMSO/water not containing the active material.
After 24 hours, the plants are contaminated by spraying them with an aqueous suspension of Pyrenophora teres spores (12,000 spores per ml). The spores are collected from a 12-day-old culture. The contaminated barley plants are incubated for 24 hours at about 20° C. and at 100% relative humidity, and then for 12 days at 80% relative humidity.
Grading is carried out 12 days after the contamination, in comparison with the control plants.

The subject of a further assay is Alternaria alternata. The assay can be described thus: Cell test on Alternaria alternata. The settings on record: under similar conditions (10 ppm, OD 620 nm after 5 days at 20° C.). Format: cell-based. Here is the method: Cell Test on Alternaria Alternata The growth of Alternaria alternata is performed on PDA medium at 20° C. under black light during 14 days. The PDA medium is prepared by mixing 39 grams of PDA (Merck) in 1 liter of demineralized water. The medium is sterilized by autoclave 15 minutes at 121° C. After 14 days of growth, the spores of Alternaria alternata are recovered in sterilized water and the concentration of spores adjusted to 10^6 spores per ml. The compounds is solubilized in DMSO and added to sterile liquid glucose/mycopeptone medium (14.6 g/l of D-glucose, 7.1 g/l of mycological peptone (Oxoid) and 1.4 g/l of yeast extract (Merck)) at a concentration of 10 ppm. The medium is inoculated with the spore suspension at a concentration of 10^5 spores per ml. The efficacy of the compounds is assessed by OD measurement at 620 nm after 5 days at 20° C. in comparison with a control.

As for `O=C(NCOc1ncc(C(F)(F)F)cc1Cl)c1ccccc1C(F)(F)F` [Compound 1, N-({[3-chloro-5-(trifluoromethyl)pyridin-2-yl]oxy}methyl)-2-(trifluoromethyl)benzamide], the protection result with Pyrenophora teres is listed as “at least 60%”.

For the molecule `O=C(NOCc1ncc(C(F)(F)F)cc1Cl)c1c(Cl)cccc1Cl` [Compound 501], the activity result in the assay with Alternaria alternata is “did not show any activity”.

As to `O=C(NOCc1ncc(C(F)(F)F)cc1Cl)c1c(F)cccc1F` [Compound 502, N-{[3-chloro-5-(trifluoromethyl)pyridin-2-yl]methoxy}-2,6-difluorobenzamide], the activity result in the assay on Alternaria alternata is listed as “did not show any activity”.
